Measurements as given in patent publication US20250145565A1 (BATTERJEE MEDICAL COLLEGE, priority 2021, published 2025).
Read-outs that look alike come from different tables or passages of the source. Each block holds one molecule with its values, some of them ahead of it.

Legend:
Format in all cases: biochemical
ALDH1a1 = ALDH1a1 (Homo sapiens (Human), UniProt P00352); experiment: ALDH assay (diaphorase/resazurin), ALDH1a1 inhibition
Description: (§1) ALDH catalyzes the oxidation of acetaldehyde to acetic acid while reducing NAD+ to NADH. The formation of NADH is fluorescently detected using diaphorase/resazurin system. Diaphorase utilizes NADH formed from ALDH reaction to produce the fluorescent molecule resorufin from resazurin. See Davis, M. I.; Shen, M.; Simeonov, A.; Hall, M. D., Diaphorase Coupling Protocols for Red-Shifting Dehydrogenase Assays.
(§2) The reagent ALDH1a1 is from R&D Systems (Minneapolis, MN). ALDH2 is from Prospect Bio (East Brunswick, NJ). Acetaldehyde is from Cayman Chemicals (Ann Arbor, MI). NAD^+, and Resazurin sodium salt are from Sigma (St. Louis, MO). Diaphorase is from Reaction Biology (Malvern PA). Zaba micro spin columns are from ThermoFisher scientific (Waltham, MA). […] Desalted samples from each enzyme were pooled together and placed in ice until use. Reaction buffer (50 mM sodium pyrophosphate buffer at pH 8.8, 0.01% Brij35) degassed using vacuum for 10 mins until no visible air bubbles were seen.
(§3) 5 μl of reaction buffer was delivered to ‘no enzyme’ background control wells. Test compounds were prepared in 100% DMSO by serial dilution in 100× of assay concentration. After adding the test compounds, reaction plate was centrifuged briefly in 1200 rpm, then incubated for 20 min at room temperature, to pre-incubate enzyme and compounds. […] Reaction plate was briefly centrifuged and sealed with a plastic film to limit evaporation. After incubation at room temperature for 60 min, 10 μl of detection reagent (15 μg/ml diaphorase, 30 μM resazurin prepared in the degassed reaction buffer) was added. Reaction plate was briefly centrifuged and incubated for 10 minutes at room temperature in the dark.

ALDH2 = ALDH2 (Homo sapiens (Human), UniProt P05091); experiment: ALDH assay (diaphorase/resazurin), ALDH2 inhibition
Description: as §1, §2, §3

human MAGL (hMAGL) = human MAGL (hMAGL) (Homo sapiens (Human), UniProt Q99685); experiment: MAGL enzyme inhibition assay (4-nitrophenylacetate); settings: for IC50: Table II, average of at least two experiments, read-out: IC50 (μM) ± SE (hMAGL); for decrease in inhibitory activity against MAGL: relative to disulfiram / unsubstituted analog
Method: The plate was mixed for 30 s and incubated at room temperature for 30 min.

human FAAH (hFAAH) = human FAAH (hFAAH) (Homo sapiens (Human), UniProt O00519); experiment: FAAH enzyme inhibition assay (Cayman kit, AMC-arachidonoyl amide); settings: for IC50: Table II, average of at least two experiments, read-out: IC50 (μM) ± SE (hFAAH)
Method: FAAH inhibition assay was performed using Fatty Acid Amide Hydrolase Inhibitor Screening Assay Kit (Item #10005196), Cayman (1180 E Ellsworth Rd Ann Arbor, MI, USA). […] Manufacturer's protocol was followed to perform the assay. The assay buffer (125 mM Tri-HCl with 1 mM EDTA, pH 9.0) was used to dilute the FAAH human recombinant enzyme. AMC-Arachidonoyl amide, at a concentration of 400 μM was then used as the FAAH substrate. Samples were mixed for 30 s and incubated at 37° C. for 30 min. The fluorescent by-product AMC (7-amino-4-methylcoumarin) released by the FAAH enzyme was detected and quantified at an excitation wavelength of 355 nm and emission wavelength of 460 nm.

[1] = Table IA, mean of at least two independent experiments, read-out: IC50 (μM) ± SE (ALDH1a1)
[2] = Table IB, mean of at least two independent experiments, read-out: IC50 (μM) ± SE (ALDH2)
[3] = Table III, read-out: Aldh1a1 (IC50, μM) ± SE

Chain of human FAAH (hFAAH) (O00519 whole entry): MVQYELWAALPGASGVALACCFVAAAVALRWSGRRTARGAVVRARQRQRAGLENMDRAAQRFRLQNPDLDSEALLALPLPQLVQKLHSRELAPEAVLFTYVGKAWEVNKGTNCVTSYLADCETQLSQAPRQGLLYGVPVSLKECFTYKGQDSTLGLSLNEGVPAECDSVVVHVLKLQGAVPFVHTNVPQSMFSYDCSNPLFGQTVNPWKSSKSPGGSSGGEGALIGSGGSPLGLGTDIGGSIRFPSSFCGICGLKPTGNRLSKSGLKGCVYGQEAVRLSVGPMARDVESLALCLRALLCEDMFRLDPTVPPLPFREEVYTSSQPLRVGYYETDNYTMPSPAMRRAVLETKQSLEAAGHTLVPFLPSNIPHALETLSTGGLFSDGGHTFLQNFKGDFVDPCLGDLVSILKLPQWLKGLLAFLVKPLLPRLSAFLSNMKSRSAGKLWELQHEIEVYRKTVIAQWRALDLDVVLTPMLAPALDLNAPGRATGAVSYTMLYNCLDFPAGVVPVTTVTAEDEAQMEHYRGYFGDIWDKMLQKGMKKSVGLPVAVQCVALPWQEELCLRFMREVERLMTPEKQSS
Chain of human MAGL (hMAGL) (Q99685 whole entry): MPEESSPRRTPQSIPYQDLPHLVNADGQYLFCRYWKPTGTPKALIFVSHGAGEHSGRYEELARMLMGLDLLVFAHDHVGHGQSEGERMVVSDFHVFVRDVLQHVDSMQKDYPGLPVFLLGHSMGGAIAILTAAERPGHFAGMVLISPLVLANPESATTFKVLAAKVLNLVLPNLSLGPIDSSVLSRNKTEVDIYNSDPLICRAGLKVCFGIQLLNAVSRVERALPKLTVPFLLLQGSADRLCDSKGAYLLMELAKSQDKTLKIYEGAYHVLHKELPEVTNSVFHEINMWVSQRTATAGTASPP
Chain of ALDH1a1 (P00352 whole entry): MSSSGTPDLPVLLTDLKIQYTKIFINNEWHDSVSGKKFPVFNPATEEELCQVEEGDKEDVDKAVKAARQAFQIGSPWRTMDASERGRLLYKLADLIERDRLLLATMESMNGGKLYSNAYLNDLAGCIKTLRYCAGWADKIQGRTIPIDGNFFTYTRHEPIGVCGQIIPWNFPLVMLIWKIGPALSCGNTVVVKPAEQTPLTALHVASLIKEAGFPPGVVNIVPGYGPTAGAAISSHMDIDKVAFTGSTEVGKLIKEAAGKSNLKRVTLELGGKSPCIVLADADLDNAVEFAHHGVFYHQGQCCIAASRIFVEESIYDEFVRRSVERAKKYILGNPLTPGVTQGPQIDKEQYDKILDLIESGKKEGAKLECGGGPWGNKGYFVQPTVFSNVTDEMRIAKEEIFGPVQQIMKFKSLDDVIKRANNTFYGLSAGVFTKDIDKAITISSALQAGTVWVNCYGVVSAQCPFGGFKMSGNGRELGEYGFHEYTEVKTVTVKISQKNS
Chain of ALDH2 (P05091 18-517): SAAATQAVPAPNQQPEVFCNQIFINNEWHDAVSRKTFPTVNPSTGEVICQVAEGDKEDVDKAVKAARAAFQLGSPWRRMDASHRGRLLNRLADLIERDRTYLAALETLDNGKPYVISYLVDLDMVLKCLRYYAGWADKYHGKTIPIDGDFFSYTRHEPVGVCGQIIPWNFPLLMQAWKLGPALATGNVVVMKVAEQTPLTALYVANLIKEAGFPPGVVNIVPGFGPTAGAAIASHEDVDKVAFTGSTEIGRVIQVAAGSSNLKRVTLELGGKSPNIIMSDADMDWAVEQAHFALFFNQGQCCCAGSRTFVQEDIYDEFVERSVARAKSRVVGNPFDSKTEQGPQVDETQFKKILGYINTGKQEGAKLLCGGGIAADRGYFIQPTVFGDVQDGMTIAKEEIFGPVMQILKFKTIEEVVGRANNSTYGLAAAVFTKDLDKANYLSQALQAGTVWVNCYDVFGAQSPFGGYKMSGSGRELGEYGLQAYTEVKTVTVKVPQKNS

Molecule: N-Acetyl-L-Cysteamine [Compound 5, reference compound]
- activity against ALDH1a1 (in words) (ALDH1a1): none of them showed any activity
- ALDH2 inhibitory activity (in words) (ALDH2): none of them showed any activity

Molecule: CCOC(=O)CCN(CC)C(=S)SSC(=S)N(CC)CCC(=O)OCC [II-2g, bis(N-ethoxycarbonylethylethylthiocarbamoyl)disulphide]
- IC50 (human MAGL (hMAGL)): 3.53 ± 1.32 µM
- IC50 (human FAAH (hFAAH)): 10.1 ± 0.68 µM

Molecule: CCOCCNC(=S)SSC(=S)NCCOCC [Compound I-2m, reference compound]
- IC50 (ALDH1a1; [1]): 0.04 ± 0.03 µM

Molecule: CN(C)C(=S)SSC(=S)N(C)C [Compound I-2g, reference compound]
- IC50 (ALDH1a1; [1]): 0.02 ± 0.01 µM
- IC50 (ALDH2; [2]): 0.32 ± 0.04 µM

- Aldh1a1 (IC50, μM) ± SE (ALDH1a1; Table III): No inhibititon
- Aldh2 (IC50, μM) ± SE (ALDH2; Table III): No inhibition
Molecule: CCN(Cc1ccc(C(F)(F)F)cc1)C(=S)SSC(=S)N(CC)Cc1ccc(C(F)(F)F)cc1 [III-1n, bis(N-4-trifluoromethylbenzylethylthiocarbamoyl)disulphide]

- IC50 (human MAGL (hMAGL)): 0.95 ± 0.26 µM
- IC50 (human FAAH (hFAAH); listed as II-2a): 36.2 ± 11 µM
Molecule: CCN(CC)C(=S)SSC(=S)N(CC)CC [Disulfiram, reference compound]

Molecule: CCN(Cc1ccsc1)C(=S)SSC(=S)N(CC)Cc1ccsc1 [III-2r, bis(N-(3-thienylmethyl)ethylthiocarbamoyl)disulphide]
- IC50 (ALDH1a1; [3]): 0.17 ± 0.1 µM
- Aldh2 (IC50, μM) ± SE (ALDH2; Table III): No inhibition

Molecule: CCN(Cc1ccncc1)C(=S)SSC(=S)N(CC)Cc1ccncc1 [III-2o, bis(N-(4-pyridylmethyl)ethylthiocarbamoyl) disulphide]
- IC50 (ALDH1a1; [3]): 5.76 ± 4.01 µM
- Aldh2 (IC50, μM) ± SE (ALDH2; Table III): No inhibition

Molecule: CC(C)N(C(=S)SSC(=S)N(C(C)C)C(C)C)C(C)C [Compound I-2h, reference compound]
- IC50 (human MAGL (hMAGL)): 1.89 ± 0.37 µM
- IC50 (ALDH1a1; [1]): 2.85 ± 1.08 µM
- IC50 (ALDH2; [2]): > 100 µM

Molecule: CCN(Cc1cccs1)C(=S)SSC(=S)N(CC)Cc1cccs1 [III-2q, bis(N-(2-thienylmethyl)ethylthiocarbamoyl)disulphide]
- IC50 (ALDH1a1; [3]): 0.39 ± 0.31 µM
- Aldh2 (IC50, μM) ± SE (ALDH2; Table III): No inhibition

Molecule: NCCS [Compound 3, Cysteamine, reference compound]
- activity against ALDH1a1 (in words) (ALDH1a1): none of them showed any activity
- ALDH2 inhibitory activity (in words) (ALDH2): none of them showed any activity

Molecule: bis(N-4-hydroxybenzylethylthlocarbamoyl)disulfide [Compound I-2c]
- IC50 (human MAGL (hMAGL)): 3.71 ± 1.28 µM
- IC50 (human FAAH (hFAAH)): 38.2 ± 7.96 µM
- IC50 (ALDH1a1; [1]): 0.21 ± 0.04 µM
- catalytic activity of inhibited ALDH1a1 after addition of dithiothreitol (ALDH1a1; addition of dithiothreitol): completely restored
- IC50 (ALDH2; [2]): 10.9 ± 0.61 µM

Molecule: CCN(Cc1ccco1)C(=S)SSC(=S)N(CC)Cc1ccco1 [III-2p, bis(N-(2-furylmethyl)ethylthiocarbamoyl)disulphide]
- IC50 (ALDH1a1; [3]): 0.39 ± 0.27 µM
- IC50 (ALDH2; Table III, read-out: Aldh2 (IC50, μM) ± SE): 200 ± 129 µM

Molecule: CCN(Cc1ccc(C(=O)O)cc1)C(=S)SSC(=S)N(CC)Cc1ccc(C(=O)O)cc1 [Compound I-2d]
- IC50 (human MAGL (hMAGL)): 22.6 ± 16.8 µM
- decrease in inhibitory activity against MAGL (human MAGL (hMAGL)): 20 fold
- FAAH inhibitory activity (in words) (human FAAH (hFAAH)): devoid of anti-FAAH activity
- IC50 (ALDH1a1; [1]): 2.96 ± 1.52 µM
- decrease in ALDH1a1 inhibitory activity (ALDH1a1; relative to I-2a): tenfold decrease
- IC50 (ALDH2; [2]): 99.36 ± 0.64 µM

Molecule: CCN(Cc1ccc(OC)cc1)C(=S)SSC(=S)N(CC)Cc1ccc(OC)cc1
- IC50 (ALDH1a1; [3]): 0.58 ± 0.41 µM
- Aldh2 (IC50, μM) ± SE (ALDH2; Table III): No inhibition

Molecule: CC(C)CN(CC(C)C)C(=S)SSC(=S)N(CC(C)C)CC(C)C [Compound I-2j, reference compound]
- IC50 (human MAGL (hMAGL)): 13.4 ± 4.79 µM
- hydrolytic activity of inhibited MAGL upon addition of dithiothreitol (human MAGL (hMAGL); dithiothreitol (10 mM)): restored
- decrease in inhibitory activity against MAGL (human MAGL (hMAGL)): up to 15 fold
- FAAH inhibitory activity (in words) (human FAAH (hFAAH)): no inhibition
- activity against ALDH1a1 (in words) (ALDH1a1): complete loss of activity
- IC50 (ALDH1a1; [1]): > 100 µM

Molecule: CCN(CCO)C(=S)SSC(=S)N(CC)CCO [Compound I-2f, bis(N-hydroxyethylethylthiocarbamoyl)disulfide]
- IC50 (human MAGL (hMAGL)): 0.72 ± 0.2 µM
- IC50 (human FAAH (hFAAH)): 25.4 ± 3.26 µM
- IC50 (ALDH1a1; [1]): 2.54 ± 1.15 µM
- IC50 (ALDH2; [2]): 25.7 ± 12.3 µM

Molecule: bis(N-4-ethoxycarbonylbenzylethylthiocarbamoyl)disulphide [II-2l]
- IC50 (human MAGL (hMAGL)): 5.03 ± 2.35 µM
- FAAH inhibitory activity (in words) (human FAAH (hFAAH)): devoid of anti-FAAH activity

Molecule: CCN(CCC(=O)O)C(=S)SSC(=S)N(CC)CCC(=O)O [Compound I-2e, bis(N-carboxylethylethylthiocarbamoyl)disulfide]
- IC50 (human MAGL (hMAGL)): 0.87 ± 0.21 µM
- IC50 (human FAAH (hFAAH)): 12.8 ± 1.57 µM
- IC50 (ALDH1a1; [1]): 0.15 ± 0.14 µM
- IC50 (ALDH2; [2]): 0.85 ± 0.55 µM

- activity against ALDH1a1 (in words) (ALDH1a1): none of them showed any activity
- IC50 (ALDH1a1; [1]): > 100 µM
- ALDH2 inhibitory activity (in words) (ALDH2): none of them showed any activity
Molecule: NCCSSCCN [Compound 4, Cystamine, reference compound]

Molecule: O=C(Oc1ccc([N+](=O)[O-])cc1)N1CCN(Cc2cccc(Oc3ccccc3)c2)CC1 [JZL-195, reference compound]
- IC50 (human FAAH (hFAAH)): 0.04 ± 0.02 µM
